Assay results from the METLIN SMRT retention time set (Domingo-Almenara et al. 2019).

test: gradient 5% acetonitrile 3 min, to 50% in 2 min, to 85% in 15 min, held 3 min, 100 µL/min; details: column: Zorbax Extend-C18 2.1 x 50 mm; eluents: water / acetonitrile, 0.1% formic acid
How it was run: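 Pure standards were run in mixtures of ~100 molecules by HPLC coupled to a quadrupole time-of-flight mass spectrometer. The column was a Zorbax Extend-C18 (2.1 × 50 mm, 1.8 μm) at 100 μL/min, with water and acetonitrile each containing 0.1% formic acid, in positive and negative ionization mode. Dead and dwell volumes were 40 μL and 900 μL. Retention time was taken from computationally picked adduct peaks, each manually inspected, with data collected over 3 months.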

Question: With `Cc1ccc(NC(=O)Nc2ccc3c(c2)CCN3S(=O)(=O)c2ccccc2)cc1C` as the compound, how does the RP-LC retention time read?
Answer: 1030 s

Question: Which RP-LC retention time does the source give for `Cc1ccc(-n2nc(C)c3sc(N4CCCC(C(=O)Nc5cc(Cl)ccc5C)C4)nc32)cc1` (centres undefined) here?
Answer: 1360 s

Question: Which RP-LC retention time does the source give for `Cc1nnc(-c2nnc(NCc3ccccc3F)c3ccccc23)o1` here?
Answer: 819 s

Question: With `O=C(Nc1ccc2nccnc2c1)c1csc2c1CCCC2` as the compound, how does the RP-LC retention time read?
Answer: 804 s

Question: Which RP-LC retention time does the source give for `COCc1nnc(NS(=O)(=O)c2ccc([N+](=O)[O-])cc2)s1` here?
Answer: 702 s

Question: For `Cc1ncoc1C(=O)NCC1Cn2cccc2C(=O)N1CC(C)C` (centres undefined), which RP-LC retention time is on record?
Answer: 647 s

Question: With `CC(C)n1cnc(S(=O)(=O)N2CCC(C(=O)Nc3ccc(F)cc3)CC2)c1` as the compound, how does the RP-LC retention time read?
Answer: 740 s

Question: For `CCc1ccc(NC(=O)C2CCN(S(=O)(=O)c3cc(-c4noc(CC)n4)cs3)CC2)cc1`, which RP-LC retention time is on record?
Answer: 660 s

Question: With `COc1ccccc1-c1noc(CCn2nc(-c3ccc4c(c3)OCO4)ccc2=O)n1` as the compound, how does the RP-LC retention time read?
Answer: 802 s

Question: With `Cn1nccc1-c1csc(S(=O)(=O)NC2CCCC2)c1` as the compound, how does the RP-LC retention time read?
Answer: 806 s

Question: With `CN(CC1CCOCC1)C(=O)Nc1ccc(F)c(Cl)c1` as the compound, how does the RP-LC retention time read?
Answer: 797 s

Question: Which RP-LC retention time does the source give for `CCCCN(CC)C(=O)c1cc(NC(=O)CC(C)C)cnc1N1CCNCC1` here?
Answer: 632 s

Question: For `Cn1nc(C(=O)N2CCCC(C(=O)Nc3ccccc3)C2)c2c1CCN(C(=O)C1CCCC1)C2` (centres undefined), which RP-LC retention time is on record?
Answer: 786 s

Question: For `Cc1cc(C)cc(N2C(=O)CN(S(=O)(=O)c3ccccc3)CC2(C)C(=O)NC2CCCC2)c1` (centres undefined), which RP-LC retention time is on record?
Answer: 968 s

Question: Which RP-LC retention time does the source give for `O=C(NCc1ccccc1)C1CC(=O)N(c2ccc3c(c2)CCN3C(=O)C2CCC2)C1` (centres undefined) here?
Answer: 769 s

Question: With `CN1CCCCCCN(C(=O)Cn2c(=O)oc3ccccc32)[C@H]2CCC[C@H]2C1=O` as the compound, how does the RP-LC retention time read?
Answer: 830 s

Question: With `c1ccc2c(CCNc3nc(N4CCCC4)c4n[nH]nc4n3)c[nH]c2c1` as the compound, how does the RP-LC retention time read?
Answer: 621 s

Question: Which RP-LC retention time does the source give for `O=S(=O)(NCC1CCN(Cc2ccco2)CC1)c1ccc2c(c1)CCCC2` here?
Answer: 603 s

Question: Which RP-LC retention time does the source give for `Cc1nnc2cc(N3CCN(Cc4ccc(C(C)C)cc4)CC3)cnn12` here?
Answer: 613 s

Question: Which RP-LC retention time does the source give for `O=C(CSc1nc2ccsc2c(=O)n1-c1ccccc1)Nc1ncn[nH]1` here?
Answer: 655 s

Question: With `COc1ccc(CC(=O)Nc2nnc(SCc3nnc(-c4ccccc4C)o3)s2)cc1` as the compound, how does the RP-LC retention time read?
Answer: 923 s

Question: For `CSc1ccccc1CN1CCC(CNC(=O)C2(c3ccccc3)CCOCC2)CC1`, which RP-LC retention time is on record?
Answer: 588 s

Question: With `COCCOC1CCC12CCN(S(=O)(=O)c1ccccc1C)CC2` (centres undefined) as the compound, how does the RP-LC retention time read?
Answer: 983 s

Question: With `COC(=O)c1cccc(Nc2c(-c3ccc(C)cc3)nc3cnccn23)c1` as the compound, how does the RP-LC retention time read?
Answer: 849 s

Question: For `Cc1ccc(-c2n[nH]c(CCNC(=O)c3ccc(S(=O)(=O)N4CCOCC4)cc3)n2)cc1`, which RP-LC retention time is on record?
Answer: 704 s

Question: Which RP-LC retention time does the source give for `c1cncc(CN2CCC(n3ncc4c(N5CCOCC5)nc(-c5ccc6[nH]ccc6c5)nc43)CC2)c1` here?
Answer: 675 s

Question: For `Cc1cc2c(cc1S(=O)(=O)N1CCCC1C(=O)NCCCc1ccccc1)OCC(=O)N2` (centres undefined), which RP-LC retention time is on record?
Answer: 816 s

Question: For `CC(C)NC(=O)N1CCCCCC1c1nc(C2CC2)no1` (centres undefined), which RP-LC retention time is on record?
Answer: 802 s

Question: Which RP-LC retention time does the source give for `CCN1CCC2(CC1)N=C(c1ccccc1)CC(c1cccc(OC)c1O)N2` (centres undefined) here?
Answer: 584 s

Question: For `CCCC(=O)Nc1ccc(CCc2nc3ccc(C(=O)NCC(C)C)cc3[nH]2)cc1`, which RP-LC retention time is on record?
Answer: 646 s

Question: With `COc1cccc(C(=O)N2C[C@@H]3C[C@H]2C[C@@H]3NC(=O)c2cccs2)c1OC` as the compound, how does the RP-LC retention time read?
Answer: 698 s

Question: Which RP-LC retention time does the source give for `CC(C)Oc1ccc(CNC(=O)CN2CCN(Cc3ccc(F)cc3)C2=O)cc1` here?
Answer: 865 s

Question: With `Cc1cc(NC(=O)C2CCN(c3cc(N4CCCC4)ncn3)CC2)ccc1F` as the compound, how does the RP-LC retention time read?
Answer: 693 s

Question: With `O=C(Cc1cccc(F)c1)N1CCOc2ccccc2C1` as the compound, how does the RP-LC retention time read?
Answer: 844 s

Question: Which RP-LC retention time does the source give for `C=CCn1ccc2c(OCC(=O)NC3CCCC3)cccc2c1=O` here?
Answer: 788 s

Question: Which RP-LC retention time does the source give for `O=C(NCc1ccc2c(c1)OCO2)C1CCN(c2ccc(SCc3ccccc3)nn2)CC1` here?
Answer: 742 s

Question: For `CNC(=O)Nc1ccc(-c2nc(N3CC4CCC(C3)O4)c3cnn(C4CCC5(CC4)OCCO5)c3n2)cc1`, which RP-LC retention time is on record?
Answer: 794 s

Question: For `COc1ccccc1CNS(=O)(=O)c1ccccc1-c1nc(-c2ccc(F)cc2)no1`, which RP-LC retention time is on record?
Answer: 1210 s

Question: Which RP-LC retention time does the source give for `CCc1ccc(S(=O)(=O)NCCc2cn(C)c3ncccc23)cc1` here?
Answer: 786 s

Question: For `O=C(c1ccco1)N1CCN(c2ccc(-c3nc(-c4cccc(F)c4)no3)cn2)CC1`, which RP-LC retention time is on record?
Answer: 893 s

Question: With `O=C(Nc1cccc(Cl)c1F)c1cnc(-c2ccccc2)nc1-c1ccncc1` as the compound, how does the RP-LC retention time read?
Answer: 964 s

Question: For `CCOC(=O)c1c(C)c(S(=O)(=O)N2CCN(c3ccccn3)CC2)c(C)n1C`, which RP-LC retention time is on record?
Answer: 690 s

Question: With `CCOC(=O)c1cccc(N2C=C(C(=O)OC)S(=O)(=O)c3ccccc32)c1` as the compound, how does the RP-LC retention time read?
Answer: 858 s

Question: With `CC(=O)Nc1ccc(C2(C(=O)NCc3cccs3)CCC2)cc1` as the compound, how does the RP-LC retention time read?
Answer: 710 s
